In ChEMBL document CHEMBL3046284, “Synthesis, insecticidal activity, and QSAR of novel nitromethylene neonicotinoids with tetrahydropyridine fixed cis configuration and exo-ring ether modification” (2007):

Columns and labels:
[1] = test system: Aphis craccivora; assay: Insecticidal activity against Aphis craccivora (cowpea aphid) assessed as mortality at 500 mg/l measured after 24 hr; format: functional
[2] = test system: Aphis craccivora; assay: Insecticidal activity against Aphis craccivora (cowpea aphid) assessed as mortality measured after 24 hr; format: functional

SMILES	mortality at 500 µg/mL [1] [%]	LC50 [2] [µM]
CCCCOC1CCC([N+](=O)[O-])=C2N(Cc3ccc(Cl)nc3)CCN21 (centres undefined)	77.7	–
O=[N+]([O-])C1=C2N(Cc3ccc(Cl)nc3)CCN2C(OC/C=C\c2ccccc2)CC1 (centres undefined)	< 10	–
O=[N+]([O-])C1=C2N(Cc3ccc(Cl)nc3)CCN2C(OCc2ccc(Cl)nc2)CC1 (centres undefined)	50	1150
CC1CC(O)N2CCN(Cc3ccc(Cl)nc3)C2=C1[N+](=O)[O-] (centres undefined)	> 90	97
CCOC1CCC([N+](=O)[O-])=C2N(Cc3ccc(Cl)nc3)CCN21 (centres undefined)	> 90	96
CC(C)OC1CCC([N+](=O)[O-])=C2N(Cc3ccc(Cl)nc3)CCN21 (centres undefined)	> 90	260
O=[N+]([O-])C1=C2N(Cc3ccc(Cl)nc3)CCN2C(O)CC1 (centres undefined)	> 90	188
CC(C)COC1CCC([N+](=O)[O-])=C2N(Cc3ccc(Cl)nc3)CCN21 (centres undefined)	76.3	–
CCC(C)OC1CCC([N+](=O)[O-])=C2N(Cc3ccc(Cl)nc3)CCN21 (centres undefined)	< 10	–
O=[N+]([O-])C1=C2N(Cc3ccc(Cl)nc3)CCN2C(OCC(F)(F)F)CC1 (centres undefined)	10.3	–
CCOC1CC(C)C([N+](=O)[O-])=C2N(Cc3ccc(Cl)nc3)CCN21 (centres undefined)	> 90	186
O=[N+]([O-])/N=C1\NCCN1Cc1ccc(Cl)nc1 [IMIDACLOPRID]	> 90	35
C#CCOC1CCC([N+](=O)[O-])=C2N(Cc3ccc(Cl)nc3)CCN21 (centres undefined)	46.9	–
CCCCCOC1CCC([N+](=O)[O-])=C2N(Cc3ccc(Cl)nc3)CCN21 (centres undefined)	62.6	–
COC1CCC([N+](=O)[O-])=C2N(Cc3ccc(Cl)nc3)CCN21 (centres undefined)	> 90	132
COC1CC(C)C([N+](=O)[O-])=C2N(Cc3ccc(Cl)nc3)CCN21 (centres undefined)	> 90	148
O=[N+]([O-])C1=C2N(Cc3ccc(Cl)nc3)CCN2C(OCCCl)CC1 (centres undefined)	44.8	–
CC(C)(C)OC1CCC([N+](=O)[O-])=C2N(Cc3ccc(Cl)nc3)CCN21 (centres undefined)	72.8	–
CCOCCOC1CCC([N+](=O)[O-])=C2N(Cc3ccc(Cl)nc3)CCN21 (centres undefined)	10.2	–
O=[N+]([O-])C1=C2N(Cc3ccc(Cl)nc3)CCN2C(OCc2ccccc2)CC1 (centres undefined)	> 90	573
CCCOC1CCC([N+](=O)[O-])=C2N(Cc3ccc(Cl)nc3)CCN21 (centres undefined)	> 90	105
CC(C)CCOC1CCC([N+](=O)[O-])=C2N(Cc3ccc(Cl)nc3)CCN21 (centres undefined)	24.4	–
CC(C)=CCOC1CCC([N+](=O)[O-])=C2N(Cc3ccc(Cl)nc3)CCN21 (centres undefined)	15.9	–
